Results on 1 molecule are retold here after ChEMBL document CHEMBL1159007, “Isolation and identification of xochitloldione and isoxochitlolone from Cnidosculus urens” (J Nat Prod, 1992).

Each structure is given as a SMILES string. Activity calls are given as the source filed them. The rule behind the calls is not given here.

For assay [1], the system named is Escherichia coli. The experiment in a line: Antimicrobial activity against Escherichia coli. Format: functional, organism-based.
The test system of assay [2] is Staphylococcus aureus. The experiment in a line: Antimicrobial activity against Staphylococcus aureus. The class given is functional, organism-based.

As to `Cc1cc2c(cc1O)C=C1C=CCC(C)(C)[C@@H]1CC2=O`, the outcome in assay [1] and in assay [2] was Active.
